Experimental data reported in patent US20240043859A1, “HERBICIDE-RESISTANT PROTEIN, AND GENE AND USE THEREOF” (QINGDAO KINGAGROOT CHEMICAL COMPOUND CO., LTD., priority 2020, published 2024).

Assays:
[1] = tested on: soybean William82; test: Spray testing of transgenic soybean T1 seedlings; format: in vivo; conditions: 4.48 kg/ha foliage spray, 10 days after spraying
Text: 1. Vector construction: the pQY2330 vector (see FIG. 8-1) was used as the overexpression vector, containing a Bar resistance gene that can be used as a selection marker for glufosinate. The AAD-like gene, QYD42, SEQ ID NO. 83, was linked to the Xho I restriction site by seamless cloning to construct the transgenic expression vector pQY2330, of which the expression cassette consisted of a double CaMV35S promoter, the AAD-like gene QYD42 and a […] Nos terminator.
2. Genetic transformation of soybeans: Soybean transformation was carried out using the Agrobacterium-mediated cotyledon nodes transformation method (Pareddy D, Chennareddy S, Anthony G, et al. Improved soybean transformation for efficient and high throughput transgenic production[J]. Transgenic Research, 2020, 29(968)). A monoclone of the Agrobacterium (EHA105) comprising the overexpression vector pQY2330 was inoculated into 5 ml YEP liquid medium (containing 25 mg/L Rifampicin and 50 mg/L Kanamycin) and shaking-cultured at 220 rmp/min, 28° C. for 8 hours. And then 0.2-0.3 ml bacteria solution was transferred to 200 ml YEP liquid medium (containing 25 mg/L Rifampicin and 50 mg/L Kanamycin) and shaking-cultured at 220 rmp/min, 28° C. overnight until the bacteria reached the exponential growth stage, then centrifuged at 4000 rmp/min for 20 min to collect the cells into a 50 ml centrifuge tube (sterilized). […]

[2] = target: T1, AAD-12 (Delftia acidovorans, UniProt P83309); test: Degradation activities of AAD-12 on phenoxy acetic acid herbicides by spectrophotometry (A510); format: biochemical, Comamonas acidovorans
T1 construct: made in house; host or cells: E. coli BL21(DE3)
T1 sequence (P83309 2-292, added parts left off): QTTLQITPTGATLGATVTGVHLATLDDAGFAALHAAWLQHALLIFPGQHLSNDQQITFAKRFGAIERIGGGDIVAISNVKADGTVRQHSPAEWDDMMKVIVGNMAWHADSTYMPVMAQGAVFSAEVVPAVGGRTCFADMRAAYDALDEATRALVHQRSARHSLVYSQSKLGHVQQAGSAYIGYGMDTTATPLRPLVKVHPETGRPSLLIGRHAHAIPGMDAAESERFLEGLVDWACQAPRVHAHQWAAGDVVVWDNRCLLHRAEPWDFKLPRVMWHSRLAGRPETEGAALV
Method: As reported in literature (Fukomori and Flausinger, Purification and characterization of 2,4-dichlorophenoxyacetate/alpha-ketoglutarate dioxygenase Journal of Biological Chemistry (1993) 268(32): 24311-24317), the constructed expression vector pET15b-AAD12 was transformed into E. coli BL21(DE3) and induced by IPTG for expression. After cells were collected and lysed, Ni-NTA column was used for purification and the purity of the protein was analyzed by SDS-PAGE.
Since phenolic products were produced by AAD-12-substrate catalytic reaction, 4-aminoantipyrine and potassium ferricyanide could be used to develop color with the products in an alkaline environment to generate red products with absorption at 510 nm, and the relevant parameters were directly read with a microplate reader.

[3] = AAD-12 enzyme with substrate, chromogenic detection at 510 nm

O=C(O)COc1ccc(Cl)cc1Cl [2,4-D, (2,4-dichlorophenoxy)acetic acid, reference compound] was tested, and the “Effect of the herbicide spray on non-transgenic soybean William82” value [1] was “all non-transgenic recipient parents died and die”, the “Degradation activity of expressed AAD-12 enzyme on the substrate” value [2] was “degradation activities” and the “A510 of reaction group, Reaction 1” value [2, 3] was 0.2865. For the same compound, the “A510 of reaction group, Reaction 2” value [2, 3] was 0.2766, the “A510 of reaction group, Reaction 3” value [2, 3] was 0.2652 and the “Increased A510” value ([2]; reaction group versus blank group) was “+0.130”.
